Experimental findings from patent US20230024778A1, “STRIGOLACTONE RECEPTOR INHIBITOR, AGRICULTURAL COMPOSITION AND USE THEREOF, STRIGA SEED GERMINATION INHIBITOR, AND TRIAZOLE UREA COMPOUND” (The University of Tokyo, priority 2017, published 2023) are described below.

For this experiment, the system named is seeds of Striga (Striga hermonthica). In words: Germination inhibition test of Striga seeds. Format: in vivo. The procedure: The coadministration of the GR24 or the GR24 and the compound 25 was performed on seeds of Striga (Striga hermonthica) pretreated for one week at 30° C. The GR24 treatment was performed with 0.1 μM, and the compound 25 treatment was performed with 50 μM or 100 μM.

Turning to `CC1=CC(O/C=C2/C(=O)O[C@@H]3c4ccccc4C[C@H]23)OC1=O` (some centres unmarked) [GR24], for the setting “GR24 0.1 μM added”, the “germination of the Striga seeds” value is reported as “germination of the Striga seeds is accelerated”. Also, for the setting “GR24 0.1 μM alone, compound 25 0 μM”, the “Germination rate of striga seed” value worked out at 30.92%.
